Assay results: US20240279288A1, “APPLICATION OF PLANT JAZ PROTEINS AND DERIVED POLYPEPTIDES IN PREVENTION AND TREATMENT OF HUMAN AND ANIMAL TUMORS” (ANYANG INSTITUTE OF SINO-COTTON INDUSTRY INNOVATION, priority 2021, published 2024)

Key:
MCF7 cells = test: Detection of GhJAZ1 protein entry into the nucleus, fluorescence microscope; type: cell-based, human; conditions: 0.5 μM
Description: In order to explore how GhJAZ1 enters cancer cells, we cloned the genes of most tumor surface receptors, including uPAR (NCBI database accession number of NM_002659.4), CCK1R (NP_000721.1), CCK2R (NP_001350481.1), HER2 (NP_004439.2), GRPR (NP_005305.1), MUC1 (NP_001358649.1), VEGFR1 (NP_002010.2), Insulin receptor (NM_000208.4), NTR (XM_011528827.2), PSMA (XM_017017432.1), TFR1 (NM_001128148.3), TFR2 (NM_003227.4), PEPT1 (NM_005073.4), APN (NM_001150.3). The receptor proteins that interact with GhJAZ1 were then screened by yeast two hybrid (the steps of the experiment as Example 3). […] We detected the interaction of GhJAZ1 with uPA (as the ligand of uPAR, NCBI database accession number of NP_002649.2) and uPAR by yeast two hybrid (the steps of the experiment as Example 3). […] GhJAZ1+RFP (the amino acid sequence set forth in SEQ ID No. 81, corresponding encoding gene sequence set forth in SEQ ID No. 82) was ligated to pET-30a (+) vector (YouBio, Cat. No.: VT1212) between NdeI and HindIII, and GhJAZ1+RFP protein with red fluorescence was prokaryotically expressed and purified (the step of method as step 2 in Example 4) (A in FIG. 11), and then MCF7 cells were treated with GhJAZ1+RFP protein and observed by a fluorescence microscope.

[1] = test system: callus of cotton "CCRI 24"; test: Growth of cotton callus on medium with JA synthesis inhibitor; conditions: DIECA 200, 400, 800 μM or ibuprofen 20, 40, 80 μM in callus induction medium; hypocotyl explants
Procedure: (§1) Explants from “CCRI 24” were cut to consistent length and placed under the same conditions for cultivation. After one month, the growth of callus was observed and photographed with a camera and microscope. Statistics on the weights of callus and measurement of JA content were performed.

[2] = test system: JA content of callus of cotton "CCRI 24"; test: JA content in cotton callus (HPLC); conditions: DIECA 200, 400, 800 μM or ibuprofen 20, 40, 80 μM in callus induction medium
Procedure: as §1

[3] = test system: cell cycle-related genes of callus; test: Fluorescence quantitative PCR of cell cycle-related genes in cotton callus; conditions: DIECA 200, 400, 800 μM or ibuprofen 20, 40, 80 μM in callus induction medium
Procedure: Identification at the RNA level: RNA was extracted using RNA extraction kit (RNAprep Pure Polysaccharide Polyphenol Plant Total RNA Extraction Kit (DP441), manufacturer: TIANGEN BIOTECH (BEIJING) CO., LTD.), and then cDNA was obtained using two-step reverse transcription kit (a third-generation premix for two-step de-genomization and reverse transcription, Cat. No.: MR05201). cDNA as a template was added into a 96-well plate, with addition of SYBR®Green I chimeric dye (an antibody dye quantitative PCR premix, Cat. No.: MQ10101) and gene primers for three-step qPCR amplification. Finally, the relative gene expression was calculated based on the Ct value.
The steps of RNA extraction, reverse transcription, and fluorescence quantitative PCR were the same as above, and the sequences of primers were as follows: […]
as §1

GhJAZ1+RFP: GhJAZ1 fused with RFP, red fluorescence, amino acid sequence SEQ ID No. 81
entry into the nucleus of MCF7 cells (red fluorescence merged with blue nuclear fluorescence) (MCF7 cells): entered the nucleus

CC(C)Cc1ccc(C(C)C(=O)O)cc1 (stereo not shown) [ibuprofen]
growth of callus of cotton [1]: significantly inhibit
JA content of callus [2]: significantly decreased
cell cycle-related genes of callus [3]: marked changes

CCN(CC)C(=S)[S-].[Na+] [DIECA]
growth of callus of cotton [1]: significantly inhibit
JA content of callus [2]: significantly decreased
cell cycle-related genes of callus [3]: marked changes
